Measured values taken from patent publication US20190381037A1, “Benzylaminopyridylcyclopropanecarboxylic acids, pharmaceutical compositions and uses thereof” (Boehringer Ingelheim International GmbH, priority 2017, published 2019).

Target: human GPR40 receptor (Homo sapiens, UniProt O14842)
Assay: IP1 accumulation measurements using the IPOne assay system
Format: cell-based
Conditions: 1321N1 cells stably expressing human GPR40 receptor; stimulated 1 h at 37° C.
Experimental: IP1 accumulation measurements using the IPOne assay system—1321N1 cells stably expressing human GPR40 receptor (Euroscreen, Belgium) are seeded 24 h before the assay in white 384-well plates in culture medium containing 10% FCS, 1% Na-Pyruvate and 400 μg/mL G418. IP1 is assayed according to the manufacturer's description (Cisbio Bioassays, France). In brief, the assay is started by substitution of the culture medium by stimulation buffer (Hepes 10 mM, CaCl2) 1 mM, MgCl2 0.5 mM, KCl 4.2 mM, NaCl 146 mM, glucose 5.5 mM and LiCl 50 mM, pH 7.4). Cells are stimulated for 1 h at 37° C., 5% CO2 by addition of the compounds that are diluted in stimulation buffer containing LiCl. Assays are stopped by adding HTRF-conjugates (IP1-d2 and Anti-IP1 cryptate Tb) and lysis buffer, provided by the manufacturer. After an incubation time of 1 h at room temperature plates are measured using an EnVision™, Perkin Elmer. The obtained fluorescence ratios at 665/615 […] are then used to calculate the pEC50 values using Assay Explorer 3.3 Software (Accelrys, Inc.) by interpolation using an IP1 reference curve and subsequent sigmoidal curve fitting allowing for a variable hill slope.

Chain of human GPR40 receptor (O14842 whole entry): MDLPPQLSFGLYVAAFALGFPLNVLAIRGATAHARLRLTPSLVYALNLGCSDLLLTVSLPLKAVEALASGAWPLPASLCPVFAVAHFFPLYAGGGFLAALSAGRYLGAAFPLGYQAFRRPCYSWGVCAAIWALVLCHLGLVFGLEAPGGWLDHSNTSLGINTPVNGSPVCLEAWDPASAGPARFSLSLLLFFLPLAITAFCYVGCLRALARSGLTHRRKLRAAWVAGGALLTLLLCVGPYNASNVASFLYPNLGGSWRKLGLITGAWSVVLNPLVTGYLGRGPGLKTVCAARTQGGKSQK

SMILES	EC50
Cc1cc(O[C@H]2CCOC2)cc(C)c1-c1cccc(COc2cnc([C@H]3C[C@@H]3C(=O)O)cn2)c1 [Example 6, (1 S,2S)-2-(5-{2′,6′-Dimethyl-4′-[(S)-(tetrahydro-furan-3-yl)oxy]-biphenyl-3-ylmethoxy}-pyrazin-2-yl)-cyclopropanecarboxylic acid]	10 nM
COc1cc(C)c(-c2cccc(COc3cnc([C@H]4C[C@@H]4C(=O)O)cn3)c2)c(C)c1 [Example 4, (1 S,2S)-2-[5-(4′-Methoxy-2′,6′-dimethyl-biphenyl-3-ylmethoxy)-pyrazin-2-yl]-cyclopropanecarboxylic acid]	12 nM
Cc1cc(OCC2CCCO2)cc(C)c1-c1ccc(F)c(COc2cnc([C@H]3C[C@@H]3C(=O)O)cn2)c1 (stereo partly drawn) [Example 14, (1 S,2S)-2-{5-[4-Fluoro-2′,6′-dimethyl-4′-(tetrahydro-furan-2-ylmethoxy)-biphenyl-3-ylmethoxy]-pyrazin-2-yl}-cyclopropanecarboxylic acid]	6 nM
Cc1cc(OCCC(C)(C)O)cc(C)c1-c1cccc(COc2cnc([C@H]3C[C@@H]3C(=O)O)cn2)c1 [Example 8, (1 S,2S)-2-{5-[4′-(3-Hydroxy-3-methyl-butoxy)-2′,6′-dimethyl-biphenyl-3-ylmethoxy]-pyrazin-2-yl}-cyclopropanecarboxylic acid]	7 nM
Cc1cc(OC2CCOCC2)cc(C)c1-c1cccc(COc2cnc([C@H]3C[C@@H]3C(=O)O)cn2)c1 [Example 7, (1 S,2S)-2-{5-[2′,6′-Dimethyl-4′-(tetrahydro-pyran-4-yloxy)-biphenyl-3-ylmethoxy]-pyrazin-2-yl}-cyclopropanecarboxylic acid]	8 nM
Cc1cc(OCCCS(C)(=O)=O)cc(C)c1-c1ccc(F)c(COc2cnc([C@H]3C[C@@H]3C(=O)O)cn2)c1 [Example 18, (1 S,2S)-2-{5-[4-Fluoro-4′-(3-methanesulfonyl-propoxy)-2′,6′-dimethyl-biphenyl-3-ylmethoxy]-pyrazin-2-yl}-cyclopropanecarboxylic acid]	7 nM
COc1cc(-c2cc(C)c(-c3ccc(F)c(COc4cnc([C@H]5C[C@@H]5C(=O)O)cn4)c3)c(C)c2)ccn1 [Example 17, (1 S,2S)-2-{5-[4-Fluoro-4′-(2-methoxy-pyridin-4-yl)-2′,6′-dimethyl-biphenyl-3-ylmethoxy]-pyrazin-2-yl}-cyclopropanecarboxylic acid]	7 nM
Cc1cc(-c2ccnn2C)cc(C)c1-c1cccc(COc2cnc([C@H]3C[C@@H]3C(=O)O)cn2)c1 [Example 11, (1 S,2S)-2-{5-[2′,6′-Dimethyl-4′-(2-methyl-2H-pyrazol-3-yl)-biphenyl-3-ylmethoxy]-pyrazin-2-yl}-cyclopropanecarboxylic acid]	6 nM
O=C(O)[C@H]1C[C@@H]1c1cnc(OCc2cccc(-c3ccc(-c4cnco4)cc3)c2)cn1 [Example 5, (1 S,2S)-2-[5-(4′-Oxazol-5-yl-biphenyl-3-ylmethoxy)-pyrazin-2-yl]-cyclopropane-carboxylic acid]	67 nM
Cc1cc(-c2nnn(C)n2)cc(C)c1-c1cccc(COc2cnc([C@H]3C[C@@H]3C(=O)O)cn2)c1 [Example 2, (1 S,2S)-2-{5-[2′,6′-Dimethyl-4′-(2-methyl-2H-tetrazol-5-yl)-biphenyl-3-ylmethoxy]-pyrazin-2-yl}-cyclopropanecarboxylic acid]	3 nM
Cc1cc(OCC2CCOCC2)cc(C)c1-c1ccc(F)c(COc2cnc([C@H]3C[C@@H]3C(=O)O)cn2)c1 [Example 19, (1 S,2S)-2-{5-[4-Fluoro-2′,6′-dimethyl-4′-(tetrahydro-pyran-4-ylmethoxy)-biphenyl-3-ylmethoxy]-pyrazin-2-yl}-cyclopropanecarboxylic acid]	6 nM
Cc1cc(OCCC(C)(C)O)cc(C)c1-c1cc(COc2cnc([C@H]3C[C@@H]3C(=O)O)cn2)c(F)cc1F [Example 1, (1 S,2S)-2-{5-[4,6-Difluoro-4′-(3-hydroxy-3-methyl-butoxy)-2′,6′-dimethyl-biphenyl-3-ylmethoxy]-pyrazin-2-yl}-cyclopropanecarboxylic acid]	6 nM
CC(C)(O)CCOc1ccc(-c2cc(COc3cnc([C@H]4C[C@@H]4C(=O)O)cn3)ccc2C(F)(F)F)cc1 [Example 21, (1 S,2S)-2-{5-[4′-(3-Hydroxy-3-methyl-butoxy)-6-trifluoromethyl-biphenyl-3-ylmethoxy]-pyrazin-2-yl}-cyclopropanecarboxylic acid]	3 nM
Cc1cnc(-c2cc(C)c(-c3ccc(F)c(COc4cnc([C@H]5C[C@@H]5C(=O)O)cn4)c3)c(C)c2)nc1 [Example 16, (1 S,2S)-2-{5-[4-Fluoro-2′,6′-dimethyl-4′-(5-methyl-pyrimidin-2-yl)-biphenyl-3-ylmethoxy]-pyrazin-2-yl}-cyclopropanecarboxylic acid]	3 nM
Cc1cc(-c2ccc(=O)n(C)c2)cc(C)c1-c1cccc(COc2cnc([C@H]3C[C@@H]3C(=O)O)cn2)c1 [Example 9, (1 S,2S)-2-{5-[2′,6′-Dimethyl-4′-(1-methyl-6-oxo-1,6-dihydro-pyridin-3-yl)-biphenyl-3-ylmethoxy]-pyrazin-2-yl}-cyclopropanecarboxylic acid]	9 nM
O=C(O)[C@H]1C[C@@H]1c1cnc(OCc2cc(-c3c(Cl)cccc3Cl)ccc2F)cn1 [Example 15, (1 S,2S)-2-[5-(2′,6′-Dichloro-4-fluoro-biphenyl-3-ylmethoxy)-pyrazin-2-yl]-cyclopropanecarboxylic acid]	8 nM
CC(C)c1ccccc1-c1ccc(F)c(COc2cnc([C@H]3C[C@@H]3C(=O)O)cn2)c1 [Example 20, (1 S,2S)-2-[5-(4-Fluoro-2′-isopropyl-biphenyl-3-ylmethoxy)-pyrazin-2-yl]-cyclopropanecarboxylic acid]	35 nM
Cc1nnc(-c2ccc(-c3cc(COc4cnc([C@H]5C[C@@H]5C(=O)O)cn4)ccc3C(F)(F)F)cc2)o1 [Example 22, (1 S,2S)-2-{5-[4′-(5-Methyl-[1,3,4]oxadiazol-2-yl)-6-trifluoromethyl-biphenyl-3-ylmethoxy]-pyrazin-2-yl}-cyclopropanecarboxylic acid]	4 nM
Cc1cc(-c2cnccn2)cc(C)c1-c1cccc(COc2cnc([C@H]3C[C@@H]3C(=O)O)cn2)c1 [Example 10, (1 S,2S)-2-[5-(2′,6′-Dimethyl-4′-pyrazin-2-yl-biphenyl-3-ylmethoxy)-pyrazin-2-yl]-cyclopropanecarboxylic acid]	13 nM
O=C(O)[C@H]1C[C@@H]1c1cnc(OCc2cccc(-c3ccccc3C(F)(F)F)c2)cn1 [Example 3, (1 S,2S)-2-[5-(2′-Trifluoromethyl-biphenyl-3-ylmethoxy)-pyrazin-2-yl]-cyclopropanecarboxylic acid]	24 nM
CCc1cccc(CC)c1-c1cccc(COc2cnc([C@H]3C[C@@H]3C(=O)O)cn2)c1 [Example 13, (1 S,2S)-2-[5-(2′,6′-Diethyl-biphenyl-3-ylmethoxy)-pyrazin-2-yl]-cyclopropane-carboxylic acid]	20 nM
Cc1cc(-c2nnn(CC(C)(C)O)n2)cc(C)c1-c1cccc(COc2cnc([C@H]3C[C@@H]3C(=O)O)cn2)c1 [Example 12, (1 S,2S)-2-(5-{4′-[2-(2-Hydroxy-2-methyl-propyl)-2H-tetrazol-5-yl]-2′,6′-dimethyl-biphenyl-3-ylmethoxy}-pyrazin-2-yl)-cyclopropanecarboxylic acid]	8 nM
